# Results: ChEMBL document CHEMBL3352648, “Bioactive constituents of Cirsium japonicum var. australe” (J Nat Prod, 2014)
# Activity calls are given as the source filed them. The rule behind the calls is not given here.
# Key:
# [1] = system: 3T3-L1; experiment: Hypoglycemic activity in mouse 3T3L1 cells assessed as increase in glucose consumption at 50 ug/ml after 24 hrs by 2-deoxyglucose uptake assay
# [2] = system: 3T3-L1; experiment: Hypoglycemic activity in mouse 3T3L1 cells assessed as increase in glucose consumption at 50 ug/ml after 24 hrs by 2-deoxyglucose uptake assay; type: functional, cell-based
# [3] = Antioxidant activity assessed as DPPH radical scavenging activity; type: physicochemical
# [4] = Antioxidant activity assessed as ABTS radical scavenging activity; type: physicochemical
# [5] = system: 3T3-L1; experiment: Hypoglycemic activity in mouse 3T3L1 cells assessed as increase in glucose consumption at 25 ug/ml after 24 hrs by 2-deoxyglucose uptake assay; type: functional, cell-based
# [6] = system: 3T3-L1; experiment: Hypoglycemic activity in mouse 3T3L1 cells assessed as increase in glucose consumption at 12.5 ug/ml after 24 hrs by 2-deoxyglucose uptake assay; type: functional, cell-based
# [7] = system: 3T3-L1; experiment: Effect on lipid accumulation in mouse 3T3L1 cells at 20 ug/ml for 7 days by Oil Red O dye; type: functional, cell-based
Structure (SMILES),Activity [1],Activity [2],EC50 [3] [µg/mL],EC50 [4] [µg/mL],Activity [5],Activity [6],Activity [7]
O=c1cc(-c2ccc(O)cc2)oc2cc(O)cc(O)c12,inactive,–,–,–,–,–,–
CCOC(=O)/C=C/c1ccc(O)c(O)c1 [ETHYL CAFFEATE],–,Active,0.18,0.19,–,–,–
C=CCCCCCC(O)C(O)C(O)C#CC#CCCC (stereo not drawn),–,Active,–,–,Active,Active,inactive
